Test results from patent publication EP0846683B1, “4-Hydroxy-piperidine derivatives” (F. HOFFMANN-LA ROCHE AG, priority 1996, dated 1998).
Structures can show the parent of a compound that is named as a salt.

Tests used:
3H-Prazosine binding = 3H-Prazosine binding (displacement, rat brain membranes); conditions: 0.2 nM 3H-Prazosine, 30 minutes at room temperature
Protocol: (§1) Male Füllinsdorf albino rats weighing between 150-200 g were used. Membranes were prepared by homogenization of the whole brain minus cerebellum and medulla oblongata with a Plytron (10.000 rpm, 30 seconds), in 25 volumes of a cold Tris-HCl 50 mM, EDTA 10mM, pH 7.1 buffer. The homogenate was centrifuged at 48.000 g for 10 minutes at 4°C. The pellet was resuspended using the Polytron in the same volume of buffer and the homogenate was incubated at 37°C for 10 minutes. After centrifugation the pellet was homogenized in the same buffer and frozen at -80°C for at least 16 hours but not more than 10 days. For the binding assay the homogenate was thawed at 37°C, centrifuged and the pellet was washed three times as above in a Tris-HCl 5mM, pH 7.4 cold buffer. The final pellet was resuspended in the same buffer and used at a final concentration of 200 µg of protein/ml.
3H-Prazosine binding experiments were performed using a Tris-HCl 50 mM, pH 7.4 buffer. For displacement experiments 0.2 nM of 3H-Prazosine were used and non specific binding was measured using 100 µM of Chlorpromazine. The incubation time was 30 minutes at room temperature and the assay was stopped by filtration on Whatman GF/B glass fiber filters (Unifilter-96, Canberra Packard S.A., Zürich, Switzerland). The filters were washed 5 times with cold buffer. The radioactivity on the filter was counted on a Packard Top-count microplate scintillation counter after addition of […] of microscint 40 (Canberra Packard S.A., Zürich, Switzerland). The effects of compounds were measured using a minimum of 8 concentrations and repeated at least once. The pooled normalized values were analyzed using a non-linear regression calculation program which provide IC50 with their relative upper and lower 95% confidence limits (RS1, BBN, USA).

NR1C + NR2B = molecular target: T1, NR1C + NR2B (Rattus norvegicus, UniProt P35439+Q00960); assay: Electrophysiology on recombinant NMDA receptors (voltage clamp, Xenopus laevis oocytes), NR1C + NR2B; type: cell-based; conditions: 0.1 µM compound; oocytes clamped to -80 mV; 1.3 µM Glu plus 0.07 µM Gly; mean of four to six oocytes
T1 construct: expressed in transfected cells; host or cells: Xenopus laevis oocytes, nuclear injection of pBC/CMV expression plasmids
Source text: (§2) Electrophysiology on recombinant NMDA receptors
(§3) cDNA clones coding for the subunits NR1C and NR2A of the NMDA receptor (see Hollmann and Heinemann, 1994, Annu. Rev. Neurosci. 17:31 for nomenclature of NMDA receptor subunits) were isolated from a rat brain λgt11 cDNA library as published elsewhere (Sigel et al., 1994, J. Biol. Chem. 269:8204). The clone for the subunit NR2B of the rat brain NMDA receptor was obtained from S. Nakanishi (Kyoto, Japan). The cDNAs encoding rat NR1C, NR2A and NR2B were subcloned into the expression vector pBC/CMV (Bertocci et al., 1991, Proc. Natl. Acad. Sci. U.S.A. 88:1416), placing transcription of the cDNA under control of the human cytomegalovirus promoter. CsCl-purified expression plasmids were mixed in a 1:3 ratio of NR1C:NR2A or NR1C:NR2B in injection buffer (88 mM NaCI, 1 mM KCl, 15 mM HEPES, at pH 7.0). Oocytes of South African frogs (Xenopus laevis) were used for expressing either a combination of the NR1C and NR2A subunits or the NR1C and NR2B subunits. 12 to 120 pg of a 1:3 (NR1C:NR2B) mixture of the respective cDNA species were injected into the nucleus of every oocyte. On the following two days the ion current through the NMDA receptor channels was measured in voltage clamp experiments for the methods of cDNA expression in oocytes and voltage-clamping (see, e.g., Bertrand et al., 1991, Methods in Neurosciences 4:174). The membrane potential was clamped to -80 mV and the receptors were activated by applying a modified Ringer's solution containing the NMDA-receptor agonists L-glutamate (Glu) and glycine (Gly). Different agonist concentrations were chosen for either subunit combination to account for the different agonist sensitivities of the two types of receptors (2.7 µM Glu plus 0.9 µM Gly for NR1C + NR2A and 1.3 µM Glu plus 0.07 µM Gly for NR1C + NR2B). The agonists were applied for 15 s intervals once every 2.5 min by rapid superfusion of the oocyte with agonist containing solution and the amplitude of the agonist-evoked current was measured immediately before the end of each application. After a series of initial control applications the antagonist to be tested was added to both, the basal Ringer's and the agonist containing solution. The antagonist concentration applied to oocytes expressing the NR2A subunit was 10 µmol/l, whereas 0.1 µmol/l were applied to the NR2B expressing oocytes. Four to six oocytes were tested for every compound and NMDA receptor subtype. Oocytes were exposed to the compounds for 5 to 30 min depending on the time needed for reaching an equilibrium block of the NMDA receptor current. For every oocyte the decrease of the current amplitude was expressed as a percentage of the control current measured before application of the compound. Figures in the table are arithmetic mean values of these percentage values.

NR1C + NR2A = molecular target: T2, NR1C + NR2A (Rattus norvegicus, UniProt Q00959); assay: Electrophysiology on recombinant NMDA receptors (voltage clamp, Xenopus laevis oocytes), NR1C + NR2A; type: cell-based; conditions: 10 µM compound; oocytes clamped to -80 mV; 2.7 µM Glu plus 0.9 µM Gly; mean of four to six oocytes
T2 construct: expressed in transfected cells; host or cells: Xenopus laevis oocytes, nuclear injection of pBC/CMV expression plasmids
Source text: as §2, §3

NMDA receptor = molecular target: T3, NMDA receptor (Rattus norvegicus, UniProt P35439+Q00960); assay: 3H-Ro 25-6981 binding (displacement, rat brain membranes); conditions: 5 nM 3H-Ro 25-6981, 2 hours at 4°C
T3 construct: Membranes were prepared by homogenization of the whole brain minus cerebellum and medulla oblongata; from tissue; host or cells: rat whole brain minus cerebellum and medulla oblongata, membranes
Protocol: 3H-Ro 25-6981 binding (Ro 25-6981 is [R-(R*,S*)]-a-(4-Hydroxy-phenyl)-b-methyl-4-(phenyl-methyl)-1-piperidine propanol)
as §1, with “Polytron” for “Plytron”, “10 mM,” for “10mM,”, “5 mM,” for “5mM,”
3H-Ro 25-6981 binding experiments were performed using a Tris-HCl 50 mM, pH 7.4 buffer. For displacement experiments 5 nM of 3H-Ro 25-6981 were used and non specific binding was measured using 10 µM of tetrahydroisoquinoline and usually it accounts for 10% of the total. The incubation time was 2 hours at 4°C and the assay was stopped by filtration on Whatmann GF/B glass fiber filters (Unifilter-96, Packard, Zürich, Switzerland). The filters were washed 5 times with cold buffer. The radioactivity on the filter was counted on a Packard Top-count microplate scintillation counter after addition of […] of microscint 40 (Canberra Packard S.A., Zürich, Switzerland).
The effects of compounds were measured using a minimum of 8 concentrations and repeated at least once. The pooled normalized values were analyzed using a non-linear regression calculation program which provide IC50 with their relative upper and lower 95% confidence limits (RS1, BBN, USA).

T2 sequence (Q00959 23-1464, other chains not shown): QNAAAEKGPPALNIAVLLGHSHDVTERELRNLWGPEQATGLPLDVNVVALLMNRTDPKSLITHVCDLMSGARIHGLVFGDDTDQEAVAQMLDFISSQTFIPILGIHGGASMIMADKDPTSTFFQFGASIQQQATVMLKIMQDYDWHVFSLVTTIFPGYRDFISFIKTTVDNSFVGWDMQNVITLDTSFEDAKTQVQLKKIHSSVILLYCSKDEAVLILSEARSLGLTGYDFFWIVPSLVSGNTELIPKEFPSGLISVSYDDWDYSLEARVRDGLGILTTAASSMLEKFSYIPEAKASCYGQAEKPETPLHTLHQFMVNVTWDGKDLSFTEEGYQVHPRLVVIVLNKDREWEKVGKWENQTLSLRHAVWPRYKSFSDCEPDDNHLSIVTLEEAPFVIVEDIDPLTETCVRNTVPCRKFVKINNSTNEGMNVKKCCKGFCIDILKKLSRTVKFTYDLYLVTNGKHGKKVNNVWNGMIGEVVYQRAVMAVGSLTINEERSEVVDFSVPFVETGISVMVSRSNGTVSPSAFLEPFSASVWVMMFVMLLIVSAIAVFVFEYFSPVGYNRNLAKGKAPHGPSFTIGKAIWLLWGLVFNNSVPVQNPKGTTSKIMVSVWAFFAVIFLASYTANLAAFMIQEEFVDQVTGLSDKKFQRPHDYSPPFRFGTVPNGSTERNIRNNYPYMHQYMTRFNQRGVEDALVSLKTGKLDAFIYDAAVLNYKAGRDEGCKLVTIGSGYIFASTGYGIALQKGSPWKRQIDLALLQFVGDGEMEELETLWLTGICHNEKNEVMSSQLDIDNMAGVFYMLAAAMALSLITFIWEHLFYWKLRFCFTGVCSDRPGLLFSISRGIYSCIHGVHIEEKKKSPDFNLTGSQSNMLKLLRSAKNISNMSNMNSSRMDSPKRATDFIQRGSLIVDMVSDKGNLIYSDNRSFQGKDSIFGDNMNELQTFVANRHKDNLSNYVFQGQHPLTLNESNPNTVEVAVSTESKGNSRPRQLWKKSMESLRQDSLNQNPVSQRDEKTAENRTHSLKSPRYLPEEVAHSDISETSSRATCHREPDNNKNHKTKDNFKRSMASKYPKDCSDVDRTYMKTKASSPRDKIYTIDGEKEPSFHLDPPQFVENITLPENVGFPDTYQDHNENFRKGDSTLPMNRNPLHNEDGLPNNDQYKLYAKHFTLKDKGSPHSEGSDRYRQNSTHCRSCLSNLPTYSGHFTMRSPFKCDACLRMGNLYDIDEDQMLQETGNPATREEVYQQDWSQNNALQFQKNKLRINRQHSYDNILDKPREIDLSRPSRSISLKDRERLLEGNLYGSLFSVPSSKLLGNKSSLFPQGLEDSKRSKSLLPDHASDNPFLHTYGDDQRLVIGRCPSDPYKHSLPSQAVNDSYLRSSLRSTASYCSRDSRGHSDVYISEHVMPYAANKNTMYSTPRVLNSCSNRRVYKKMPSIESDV
T3 sequence (Q00960 27-1482, other chains not shown): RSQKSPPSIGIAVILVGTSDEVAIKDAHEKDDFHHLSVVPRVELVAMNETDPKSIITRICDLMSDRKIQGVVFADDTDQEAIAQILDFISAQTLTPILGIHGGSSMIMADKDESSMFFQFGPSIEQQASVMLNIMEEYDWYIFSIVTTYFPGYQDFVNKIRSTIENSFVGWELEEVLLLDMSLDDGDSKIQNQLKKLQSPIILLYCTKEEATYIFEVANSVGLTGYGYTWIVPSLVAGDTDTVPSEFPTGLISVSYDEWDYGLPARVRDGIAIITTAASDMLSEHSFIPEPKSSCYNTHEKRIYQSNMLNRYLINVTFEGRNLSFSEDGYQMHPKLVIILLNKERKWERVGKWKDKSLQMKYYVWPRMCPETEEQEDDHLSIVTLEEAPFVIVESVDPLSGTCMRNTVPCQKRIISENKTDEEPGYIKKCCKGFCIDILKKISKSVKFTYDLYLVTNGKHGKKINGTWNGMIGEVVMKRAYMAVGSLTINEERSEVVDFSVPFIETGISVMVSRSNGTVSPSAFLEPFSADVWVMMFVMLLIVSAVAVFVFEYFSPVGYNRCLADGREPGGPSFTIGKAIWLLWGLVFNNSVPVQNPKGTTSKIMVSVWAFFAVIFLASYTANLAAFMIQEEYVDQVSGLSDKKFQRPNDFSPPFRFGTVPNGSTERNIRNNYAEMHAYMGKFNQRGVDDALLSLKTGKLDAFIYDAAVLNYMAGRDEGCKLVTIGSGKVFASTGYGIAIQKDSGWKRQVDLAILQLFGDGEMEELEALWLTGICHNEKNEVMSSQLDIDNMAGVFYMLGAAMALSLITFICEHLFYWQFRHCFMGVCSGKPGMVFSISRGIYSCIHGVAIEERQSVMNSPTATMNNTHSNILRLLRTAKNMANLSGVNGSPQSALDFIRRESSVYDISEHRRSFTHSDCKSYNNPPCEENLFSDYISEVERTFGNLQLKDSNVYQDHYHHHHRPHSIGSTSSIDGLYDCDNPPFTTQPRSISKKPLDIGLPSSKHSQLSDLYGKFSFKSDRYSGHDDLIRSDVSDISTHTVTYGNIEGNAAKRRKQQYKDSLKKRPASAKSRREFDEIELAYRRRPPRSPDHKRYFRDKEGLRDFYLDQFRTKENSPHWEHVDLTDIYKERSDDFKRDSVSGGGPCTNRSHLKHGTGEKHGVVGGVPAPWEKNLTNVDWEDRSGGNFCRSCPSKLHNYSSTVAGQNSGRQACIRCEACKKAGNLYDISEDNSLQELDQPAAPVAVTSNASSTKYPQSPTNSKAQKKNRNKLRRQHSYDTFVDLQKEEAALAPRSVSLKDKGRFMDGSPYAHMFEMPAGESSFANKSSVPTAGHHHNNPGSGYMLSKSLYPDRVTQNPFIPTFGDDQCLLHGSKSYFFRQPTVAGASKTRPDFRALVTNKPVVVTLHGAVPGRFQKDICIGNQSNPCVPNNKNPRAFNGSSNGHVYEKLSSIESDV
T1 sequence (Q00960 27-1482, other chains not shown): as above

| Compound | IC50 (3H-Prazosine binding) [µM] | Electrophysiology NR1C + NR2B % block by 0.1 µM (NR1C + NR2B) [%] | Electrophysiology NR1C + NR2A % block by 10 µM (NR1C + NR2A) [%] | IC50 (NMDA receptor) [µM] |
| --- | --- | --- | --- | --- |
| Cc1ccc(CC2(O)CCN(CC3Cc4cc(O)ccc4C3O)CC2)cc1 (stereo not drawn) [Example 16, (1RS,2RS) and (1RS,2SR)-2-[4-Hydroxy-4-(4-methyl-benzyl)-piperidine-1-ylmethyl]-indan-1,5-diol fumarate salt] | 5 | 86 | 6 | 0.023 |
| Cc1ccc(CC2(O)CCN(C[C@H]3CCc4cc(O)ccc4[C@@H]3O)CC2)cc1.O=C(O)/C=C/C(=O)O (racemic) [Example 27, (1RS, 2RS)-1-(1,6-Dihydroxy-1,2,3,4-tetrahydro-naphthalen-2-ylmethyl)-4-(4-methyl-benzyl)-piperidin-4-ol fumarate salt] | 6 | 91 | 15 |  |
| CCc1ccc(CC2(O)CCN(CC3Cc4cc(O)ccc4O3)CC2)cc1.Cl (racemic) [Example 7, (RS)-4-(4-Ethyl-benzyl)-1-(5-hydroxy-2,3-dihydro-benzofuran-2-ylmethyl)-piperidin-4-ol hydrochloride] | 6 | 89 | 12 | 0.012 |
| Cl.Oc1ccc2c(c1)C[C@@H](CN1CCC(O)(Cc3ccc(Cl)cc3)CC1)O2 [Example 14, (S)-1-(5-Hydroxy-2,3-dihydro-benzofuran-2-ylmethyl)-4-(4-chloro-benzyl)-piperidin-4-ol hydrochloride] | 6 | 90 | 9 | 0.005 |
| Cc1ccc(CC2(O)CCN(CC3Cc4ccc(O)cc4C3)CC2)cc1 (racemic) [Example 19, (RS)-1-(5-Hydroxy-indan-2-ylmethyl)-4-(4-methyl-benzyl)-piperidin-4-ol] | 3.2 |  |  | 0.055 |
| CS(=O)(=O)Nc1ccc2c(c1)CC(CN1CCC(O)(Cc3ccc(Cl)cc3)CC1)O2 (racemic) [Example 22, (RS)-N-{2-[4-(4-chloro-benzyl)-4-hydroxy-pipiridin-1-ylmethyl]-2,3-dihydroxybenzofuran-5-yl}methane sulfonamide hydrochloride] | 6.5 |  |  |  |
| Cc1ccc(CC2(O)CCN(CC3Cc4cc(NS(C)(=O)=O)ccc4O3)CC2)cc1 (racemic) [Example 23, (RS)-N(2-[4-hydroxy-4-(4-methyl-benzyl)-piperidin-1-ylmethyl]-2,3-dihydrobenzofuran-5-yl]-methane sulfonamide hydrochloride] | 2.3 |  |  | 0.04 |
| Oc1ccc2c(c1)CC[C@H](CN1CCC(O)(Cc3ccccc3)CC1)[C@H]2O (racemic) [Example 29, (1RS,2RS)-2-(4-Benzyl-4-hydroxy-piperidin-1-yl-methyl)-6-hydroxy-1,2,3,4-tetrahydro-naphthalen-1-ol] | 11 |  |  | 0.023 |
| Cc1ccc(CC2(O)CCN(CC3Cc4cc(O)ccc4O3)CC2)cc1 (racemic) [Example 2, (RS)-1-(5-Hydroxy-2,3-dihydro-benzofuran-2-ylmethyl)-4-(4-methyl-benzyl)-piperidin-4-ol hydrochloride] | 3.2 |  |  | 0.02 |
| Cc1ccc(CC2(O)CCN(C[C@@H]3Cc4cc(O)ccc4O3)CC2)cc1.Cl [Example 13, (S)-1-(5-Hydroxy-2,3-dihydro-benzofuran-2-ylmethyl)-4-(4-methyl-benzyl)-piperidin-4-ol hydrochloride] | 6 | 93 | 8 | 0.014 |
| Cc1ccc(CC2(O)CCN(CC3Cc4cc(O)ccc4N3)CC2)cc1 (racemic) [Example 21, (RS)-2-[4-Hydroxy-4-(4-methyl-benzyl)-piperidin-1-ylmethyl]-2,3-dihydro-1H-indol-5-ol] | 6.6 |  |  | 0.055 |
| Cc1ccc(CC2(O)CCN(CC3CCc4cc(O)ccc4C3)CC2)cc1 (racemic) [Example 30, (RS)-1-(6-Hydroxy-1,2,3,4-tetrahydro-naphthalen-2-ylmethyl)-4-(4-methyl-benzyl)-piperidin-4-ol hydrochloride] | 0.8 |  |  | 0.02 |
| Oc1ccc2c(c1)CC(CN1CCC(O)(Cc3ccc(F)cc3)CC1)O2 (racemic) [Example 5, (RS)-4-(4-fluoro-benzyl)-1-(5-hydroxy-2,3-dihydro-benzofuran-2-ylmethyl)-piperidin-4-ol hydrochloride] | 4 |  |  | 0.04 |
| Oc1ccc2c(c1)CC(CN1CCC(O)(Cc3ccccc3)CC1)O2 (racemic) [Example 4, (RS)-4-Benzyl-1-(5-hydroxy-2,3-dihydro-benzofuran-2-ylmethyl)-piperidin-4-ol hydrochloride] | 2.5 |  |  | 0.05 |
